From US20230278995A1, “1,3,4-OXADIAZOLE DERIVATIVE COMPOUNDS AS HISTONE DEACETYLASE 6 INHIBITOR, AND THE PHARMACEUTICAL COMPOSITION COMPRISING THE SAME” (CHONG KUN DANG PHARMACEUTICAL CORP., priority 2020, published 2023) come the findings set out here.

The term IC50 denotes the concentration at which inhibition is half-maximal.

The target of one test is T1, human recombinant HDAC1 (Homo sapiens, UniProt Q13547).
T1 construct: purchased Enzo Life Sciences, Inc. BML-SE456
Put plainly: HDAC enzyme activity inhibition assay (HDAC Fluorimetric Drug Discovery Kit), HDAC1. Format: biochemical. The settings on record: human recombinant HDAC1, Fluor de Lys-SIRT1 substrate, 30° C. 60 minutes. In outline:
(§1)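 Recombinant human HDAC1 or HDAC6 (0.3 μg) reacted with 10 μM Fluor de Lys-SIRT1 substrate at 30 °C for 60 min. Developer added for 30 min, then fluorescence read at Ex 360/Em 460.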

Another test addresses T2, human recombinant HDAC6 (Homo sapiens, UniProt Q9UBN7).
T2 construct: purchased Calbiochem Inc. 382180
T2 sequence (Q9UBN7 1-1215): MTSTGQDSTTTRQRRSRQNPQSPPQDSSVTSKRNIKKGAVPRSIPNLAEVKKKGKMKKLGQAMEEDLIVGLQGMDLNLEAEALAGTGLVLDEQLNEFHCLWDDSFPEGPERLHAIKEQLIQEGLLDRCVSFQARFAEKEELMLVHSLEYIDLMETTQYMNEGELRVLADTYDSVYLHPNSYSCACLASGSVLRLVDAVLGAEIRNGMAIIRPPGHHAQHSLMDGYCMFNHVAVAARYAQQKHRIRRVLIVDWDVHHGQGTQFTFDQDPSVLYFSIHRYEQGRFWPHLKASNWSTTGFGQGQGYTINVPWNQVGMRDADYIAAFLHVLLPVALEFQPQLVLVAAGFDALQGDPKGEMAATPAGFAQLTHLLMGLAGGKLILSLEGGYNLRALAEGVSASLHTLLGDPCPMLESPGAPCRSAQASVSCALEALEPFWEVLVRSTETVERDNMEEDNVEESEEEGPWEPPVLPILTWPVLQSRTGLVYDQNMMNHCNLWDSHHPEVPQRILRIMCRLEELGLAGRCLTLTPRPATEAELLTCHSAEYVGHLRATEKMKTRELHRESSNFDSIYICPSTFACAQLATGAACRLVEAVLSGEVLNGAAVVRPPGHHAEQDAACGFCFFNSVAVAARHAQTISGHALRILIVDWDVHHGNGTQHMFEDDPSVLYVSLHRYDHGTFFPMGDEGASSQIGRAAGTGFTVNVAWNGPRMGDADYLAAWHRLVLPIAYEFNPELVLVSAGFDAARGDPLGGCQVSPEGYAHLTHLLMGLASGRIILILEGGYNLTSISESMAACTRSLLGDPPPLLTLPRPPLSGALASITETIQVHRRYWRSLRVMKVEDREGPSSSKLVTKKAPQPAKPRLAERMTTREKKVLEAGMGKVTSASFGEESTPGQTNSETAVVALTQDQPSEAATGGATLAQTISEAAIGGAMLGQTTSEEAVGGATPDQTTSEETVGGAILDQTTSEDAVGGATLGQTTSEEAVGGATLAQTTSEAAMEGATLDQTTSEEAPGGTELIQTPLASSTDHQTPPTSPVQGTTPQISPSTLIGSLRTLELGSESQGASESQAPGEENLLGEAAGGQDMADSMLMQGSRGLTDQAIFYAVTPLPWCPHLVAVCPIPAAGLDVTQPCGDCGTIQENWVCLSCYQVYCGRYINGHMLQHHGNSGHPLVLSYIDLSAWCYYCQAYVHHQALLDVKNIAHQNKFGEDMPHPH
Put plainly: HDAC enzyme activity inhibition assay (HDAC Fluorimetric Drug Discovery Kit), HDAC6. It is filed as biochemical. The settings on record: for HDAC6 selectivity (fold): HDAC1 vs HDAC6; for IC50: human recombinant HDAC6, same protocol as HDAC1. In outline:
as §1

T1 sequence (Q13547 whole entry): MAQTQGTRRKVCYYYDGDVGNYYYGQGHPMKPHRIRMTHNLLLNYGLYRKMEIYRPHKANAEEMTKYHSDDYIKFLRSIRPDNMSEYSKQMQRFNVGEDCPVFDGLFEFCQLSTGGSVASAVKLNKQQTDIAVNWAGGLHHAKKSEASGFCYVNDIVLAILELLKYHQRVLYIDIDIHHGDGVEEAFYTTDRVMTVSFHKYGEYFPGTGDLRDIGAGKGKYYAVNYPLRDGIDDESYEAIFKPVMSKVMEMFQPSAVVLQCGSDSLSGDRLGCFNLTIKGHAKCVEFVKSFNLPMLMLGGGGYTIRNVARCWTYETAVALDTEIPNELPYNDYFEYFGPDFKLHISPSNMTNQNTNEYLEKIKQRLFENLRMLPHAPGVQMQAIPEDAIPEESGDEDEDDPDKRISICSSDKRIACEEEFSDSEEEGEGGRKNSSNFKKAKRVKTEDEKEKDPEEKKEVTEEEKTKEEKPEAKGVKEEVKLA

In the case of `O=C(C1CCCC1)N1CC(F)(C(=O)N(Cc2ccc(-c3nnc(C(F)F)o3)cn2)c2ccccc2)C1` [Compound 3160, 1-(cyclopentanecarbonyl)-N-((5-(5-(difluoromethyl)-1,3,4-oxadiazol-2-yl)pyridin-2-yl)methyl)-3-fluoro-N-phenylazetidine-3-carboxamide], the IC50 at human recombinant HDAC1 is greater than 50 µM. In addition, on human recombinant HDAC6, the “HDAC6 selectivity (fold)” value is 1,466 fold and the IC50 amounted to 34.1 nM.
Consider `O=C(N(Cc1ccc(-c2nnc(C(F)F)o2)cn1)c1ccccc1)C1(F)CN(C2CCSCC2)C1` [Compound 3162, N-((5-(5-(difluoromethyl)-1,3,4-oxadiazol-2-yl)pyridin-2-yl)methyl)-3-fluoro-N-phenyl-1-(tetrahydro-2H-thiopyran-4-yl)azetidine-3-carboxamide], for which the IC50 on human recombinant HDAC1 was greater than 50 µM. On human recombinant HDAC6, the “HDAC6 selectivity (fold)” value was 2,272 fold and the IC50 was 22 nM.
In the case of `CCC(=O)N1CC(F)(C(=O)N(Cc2ccc(-c3nnc(C(F)F)o3)cn2)c2cccc(F)c2)C1` [Compound 3163, N-((5-(5-(difluoromethyl)-1,3,4-oxadiazol-2-yl)pyridin-2-yl)methyl)-3-fluoro-N-(3-fluorophenyl)-1-propionylazetidine-3-carboxamide], the IC50 on human recombinant HDAC1 is greater than 50 µM. For the same molecule, at human recombinant HDAC6, the “HDAC6 selectivity (fold)” value was 2,155 fold and the IC50 was 23.2 nM.
Regarding `CC(=O)N1CC(F)(C(=O)N(Cc2ccc(-c3nnc(C(F)F)o3)cn2)c2cccc(F)c2)C1` [Compound 3164, 1-acetyl-N-((5-(5-(difluoromethyl)-1,3,4-oxadiazol-2-yl)pyridin-2-yl)methyl)-3-fluoro-N-(3-fluorophenyl)azetidine-3-carboxamide], the IC50 on human recombinant HDAC1 is greater than 50 µM. Also, on human recombinant HDAC6, the “HDAC6 selectivity (fold)” value is reported as 2,808 fold and the IC50 worked out at 17.8 nM.
As to `CCCC(=O)N1CC(F)(C(=O)N(Cc2ccc(-c3nnc(C(F)F)o3)cn2)c2cccc(F)c2)C1` [Compound 3165, 1-butyryl-N-((5-(5-(difluoromethyl)-1,3,4-oxadiazol-2-yl)pyridin-2-yl)methyl)-3-fluoro-N-(3-fluorophenyl)azetidine-3-carboxamide], the IC50 at human recombinant HDAC1 is greater than 50 µM. Also, at human recombinant HDAC6, the “HDAC6 selectivity (fold)” value is given as 2,066 fold and the IC50 was 24.2 nM.
On to `CC(C)CC(=O)N1CC(F)(C(=O)N(Cc2ccc(-c3nnc(C(F)F)o3)cn2)c2cccc(F)c2)C1` [Compound 3166, N-((5-(5-(difluoromethyl)-1,3,4-oxadiazol-2-yl)pyridin-2-yl)methyl)-3-fluoro-N-(3-fluorophenyl)-1-(3-methylbutanoyl)azetidine-3-carboxamide], for which the figures for the IC50 at human recombinant HDAC1 and on human recombinant HDAC6 were greater than 50 µM and 67.4 nM, respectively. Besides, the “HDAC6 selectivity (fold)” value on human recombinant HDAC6 was found to be 741 fold.
On the same counts, the results for `O=C(C1CCC1)N1CC(F)(C(=O)N(Cc2ccc(-c3nnc(C(F)F)o3)cn2)c2cccc(F)c2)C1` [Compound 3168, 1-(cyclobutanecarbonyl)-N-((5-(5-(difluoromethyl)-1,3,4-oxadiazol-2-yl)pyridin-2-yl)methyl)-3-fluoro-N-(3-fluorophenyl)azetidine-3-carboxamide] are greater than 50 µM, 17.2 nM and 2,906 fold.
Turning to `O=C(C1CCCC1)N1CC(F)(C(=O)N(Cc2ccc(-c3nnc(C(F)F)o3)cn2)c2cccc(F)c2)C1` [Compound 3169, 1-(cyclopentanecarbonyl)-N-((5-(5-(difluoromethyl)-1,3,4-oxadiazol-2-yl)pyridin-2-yl)methyl)-3-fluoro-N-(3-fluorophenyl)azetidine-3-carboxamide], the IC50 on human recombinant HDAC1 was greater than 50 µM. Also, at human recombinant HDAC6, the “HDAC6 selectivity (fold)” value was 2,808 fold and the IC50 was 17.8 nM.
Consider `O=C(C1CCCCC1)N1CC(F)(C(=O)N(Cc2ccc(-c3nnc(C(F)F)o3)cn2)c2cccc(F)c2)C1` [Compound 3170, 1-(cyclohexanecarbonyl)-N-((5-(5-(difluoromethyl)-1,3,4-oxadiazol-2-yl)pyridin-2-yl)methyl)-3-fluoro-N-(3-fluorophenyl)azetidine-3-carboxamide], for which the IC50 at human recombinant HDAC1 is greater than 50 µM; on human recombinant HDAC6 it was 24.2 nM. In addition, the “HDAC6 selectivity (fold)” value at human recombinant HDAC6 is on record as 2,066 fold.
In the case of `O=C(N(Cc1ccc(-c2nnc(C(F)F)o2)cn1)c1cccc(F)c1)C1(F)CN(CC2CCCCC2)C1` [Compound 3171, 1-(cyclohexylmethyl)-N-((5-(5-(difluoromethyl)-1,3,4-oxadiazol-2-yl)pyridin-2-yl)methyl)-3-fluoro-N-(3-fluorophenyl)azetidine-3-carboxamide], at human recombinant HDAC1, the IC50 is greater than 50 µM. At human recombinant HDAC6, the “HDAC6 selectivity (fold)” value amounted to 741 fold and the IC50 was found to be 67.4 nM.
In the case of `O=C(N(Cc1ccc(-c2nnc(C(F)F)o2)cn1)c1cccc(F)c1)C1(F)CN(C2CCSCC2)C1` [Compound 3172, N-((5-(5-(difluoromethyl)-1,3,4-oxadiazol-2-yl)pyridin-2-yl)methyl)-3-fluoro-N-(3-fluorophenyl)-1-(tetrahydro-2H-thiopyran-4-yl)azetidine-3-carboxamide], the IC50 on human recombinant HDAC1 was greater than 50 µM; on human recombinant HDAC6, 22.8 nM. Also, the “HDAC6 selectivity (fold)” value at human recombinant HDAC6 is reported as 2,192 fold.
In the same order, the values of `O=C(N(Cc1ccc(-c2nnc(C(F)F)o2)cn1)c1ccccc1)C1(F)CN(CC2CCOCC2)C1` [Compound 3216] are greater than 50 µM, 57.1 nM and 875 fold.
Take `O=C(C1CC1)N1CC(F)(C(=O)N(Cc2ccc(-c3nnc(C(F)F)o3)cn2)c2cccc(F)c2)C1` [Compound 3217, 1-(cyclopropanecarbonyl)-N-((5-(5-(difluoromethyl)-1,3,4-oxadiazol-2-yl)pyridin-2-yl)methyl)-3-fluoro-N-(3-fluorophenyl)azetidine-3-carboxamide]: the IC50 on human recombinant HDAC1 was greater than 50 µM. On human recombinant HDAC6, the “HDAC6 selectivity (fold)” value is on record as 1,440 fold and the IC50 turned out to be 34.7 nM.
Take `O=C(N(Cc1ccc(-c2nnc(C(F)F)o2)cn1)c1cccc(F)c1)C1(F)CN(CC2CCOCC2)C1` [Compound 3218]: the IC50 at human recombinant HDAC1 is greater than 50 µM; on human recombinant HDAC6 it was 42.1 nM. The “HDAC6 selectivity (fold)” value at human recombinant HDAC6 is on record as 1,187 fold.
As for `CN1CC(N2CC(F)(C(=O)N(Cc3ccc(-c4nnc(C(F)F)o4)cn3)c3cccc(F)c3)C2)C1` [Compound 3219, N-((5-(5-(difluoromethyl)-1,3,4-oxadiazol-2-yl)pyridin-2-yl)methyl)-3-fluoro-N-(3-fluorophenyl)-1′-methyl-[1,3′-biazetidine]-3-carboxamide], the IC50 at human recombinant HDAC1 was greater than 50 µM. On human recombinant HDAC6, the “HDAC6 selectivity (fold)” value worked out at 988 fold and the IC50 is 50.6 nM.
Regarding `CCN1CC(N2CC(F)(C(=O)N(Cc3ccc(-c4nnc(C(F)F)o4)cn3)c3cccc(F)c3)C2)C1` [Compound 3220, N-((5-(5-(difluoromethyl)-1,3,4-oxadiazol-2-yl)pyridin-2-yl)methyl)-1′-ethyl-3-fluoro-N-(3-fluorophenyl)-[1,3′-biazetidine]-3-carboxamide], on human recombinant HDAC1, the IC50 is greater than 50 µM. On human recombinant HDAC6, the “HDAC6 selectivity (fold)” value is recorded as 1,272 fold and the IC50 was 39.3 nM.
As for `CCCCN1CC(N2CC(F)(C(=O)N(Cc3ccc(-c4nnc(C(F)F)o4)cn3)c3cccc(F)c3)C2)C1` [Compound 3222, 1′-butyl-N-((5-(5-(difluoromethyl)-1,3,4-oxadiazol-2-yl)pyridin-2-yl)methyl)-3-fluoro-N-(3-fluorophenyl)-[1,3′-biazetidine]-3-carboxamide], the IC50 on human recombinant HDAC1 is greater than 50 µM. Also, at human recombinant HDAC6, the “HDAC6 selectivity (fold)” value is on record as 1,420 fold and the IC50 worked out at 35.2 nM.
Consider `CC(C)CN1CC(N2CC(F)(C(=O)N(Cc3ccc(-c4nnc(C(F)F)o4)cn3)c3cccc(F)c3)C2)C1` [Compound 3223, N-((5-(5-(difluoromethyl)-1,3,4-oxadiazol-2-yl)pyridin-2-yl)methyl)-3-fluoro-N-(3-fluorophenyl)-1′-isobutyl-[1,3′-biazetidine]-3-carboxamide], for which the results for the IC50 on human recombinant HDAC1 and at human recombinant HDAC6 were greater than 50 µM and 35.1 nM, respectively. In addition, the “HDAC6 selectivity (fold)” value on human recombinant HDAC6 was 1,424 fold.
